Laboratory results published in patent US20260041679A1, “METHOD OF TREATING HYPERTENSION WITH THE ALDOSTERONE SYNTHASE INHIBITOR BAXDROSTAT” (CINCOR PHARMA, INC., priority 2022, published 2026).

Test system: patients with uHTN
Test: Study 124 Part 1: seated SBP in patients with uncontrolled hypertension (Example 9)
Format: in vivo, human
Set-up: key to Model-Based Least-Squares Mean Change from Baseline (SBP) / LSMEANS change from baseline (SBP) / Model-Based Least-Square Mean Change from Baseline (SBP): LS mean change from baseline in seated SBP, mmHg
Experimental: Study 124 is a double-blind, placebo-controlled, dose range finding, multicenter study conducted in patients with uHTN receiving background antihypertensive agent(s) that are either an ACEI or an ARB, an ACEI/ARB plus a thiazide diuretic, or an ACEI/ARB plus a calcium channel blocker. The study consists of two parts: Part 1 consists of an 8-week treatment period in which the patients are to be assigned to one of 4 dose groups in equal ratio testing 0.5 mg, 1 mg, and 2 mg baxdrostat effects compared to a placebo. Patients are to administer double-blind baxdrostat tablets once per day while they continue taking the background antihypertensive medications. After 8 weeks of double-blind treatment, patients were to enter part 2 of the study unless the patient was assigned to the 2 mg group and the SBP remains ≥130 mmHg. In part 2 of the study, all patients are to cease dosing with background antihypertensive medication and take only baxdrostat 2 mg dose as a monotherapy for 4 weeks.
Key inclusion criteria include that patients are on a stable regimen of anti-hypertensive agents for at least 8 weeks; and have a seated BP≥140 mmHg. Key exclusion criteria include a seated SBP≥180 mmHg and estimated glomerular filtration rate (eGFR)<30 mL/min/1.73 m^2.
In this table, CI=confidence interval, DBP=diastolic blood pressure, LS=least squares, SBP=systolic blood pressure, SE=standard error. The LS means, CIs, and p-values are from an MMRM model with change from baseline as the dependent variable with randomized treatment, visit, and treatment-by-visit interaction as fixed categorical effects; along with covariates of the baseline value, race (African American versus non-African American), and the type of background antihypertensive regimen. The restricted maximum likelihood estimation (REML) approach will be used with an unstructured covariance matrix and the Kenward-Roger approximation for degrees of freedom.

[1] = 0.5 mg (N = 11), mITT Population for Compliance for Black Patients
[2] = 0.5 mg (N = 11), mITT, Female Non-Hispanic Female Patients
[3] = 0.5 mg (N = 12), mITT, Non-Hispanic Male Patients
[4] = 0.5 mg (N = 15), mITT, Hispanic Male Patients
[5] = 1 mg (N = 11), mITT, Female Non-Hispanic Female Patients
[6] = 1 mg (N = 13), mITT Population for Compliance for Black Patients
[7] = 1 mg (N = 14), mITT, Female Hispanic/Latino Patients
[8] = 1 mg (N = 14), mITT, Hispanic Male Patients
[9] = 1 mg (N = 22), mITT, Non-Hispanic Male Patients

Structure (SMILES): CCC(=O)N[C@@H]1CCCc2c(-c3ccc4c(c3)CCC(=O)N4C)cncc21 [baxdrostat, (R)—N-(4-(1-methyl-2-oxo-1,2,3,4-tetrahydroquinolin-6-yl)-5,6,7,8-tetrahydroisoquinolin-8-yl) propionamide]
- SBP Change from Baseline to Week 8, Mean (0.5 mg): −17.0 mmHg
- SBP Change from Baseline to Week 8, Median (0.5 mg): −17.0 mmHg
- SBP at Week 8, Median (0.5 mg): 127.0 mmHg
- Model-Based Least-Square Mean Change from Baseline (SBP) (0.5 mg (N = 11), Week 2, mITT Population for Compliance for Black Patients): −9.0
- Model-Based Least-Squares Mean Change from Baseline (SBP) (0.5 mg (N = 11), Week 2, mITT, Female Non-Hispanic Female Patients): −12.5
- Model-Based Least-Square Mean Change from Baseline (SBP) (0.5 mg (N = 11), Week 4, mITT Population for Compliance for Black Patients): −11.6
- Model-Based Least-Squares Mean Change from Baseline (SBP) (0.5 mg (N = 11), Week 4, mITT, Female Non-Hispanic Female Patients): −12.2
- Model-Based Least-Square Mean Change from Baseline (SBP) (0.5 mg (N = 11), Week 6, mITT Population for Compliance for Black Patients): −13.0
- Model-Based Least-Squares Mean Change from Baseline (SBP) (0.5 mg (N = 11), Week 6, mITT, Female Non-Hispanic Female Patients): −11.8
- Model-Based Least-Square Mean Change from Baseline (SBP) (0.5 mg (N = 11), Week 8, mITT Population for Compliance for Black Patients): −17.2
- Model-Based Least-Squares Mean Change from Baseline (SBP) (0.5 mg (N = 11), Week 8, mITT, Female Non-Hispanic Female Patients): −16.7
- Comp w/ Placebo at Week 6, Diff (95% CI) [1]: −2.6 (−14.94, 9.64)
- Comp w/ Placebo at Week 8, Diff (95% CI) [1]: −3.0 (−13.58, 7.49)
- Comp w/ Placebo at Week 6, Diff (95% CI) [2]: −1.5 (−13.92, 10.84)
- Comp w/ Placebo at Week 8, Diff (95% CI) [2]: −3.7 (−13.14, 5.67)
- Model-Based Least-Squares Mean Change from Baseline (SBP) (0.5 mg (N = 12), Week 2, mITT, Non-Hispanic Male Patients): −19.9
- Model-Based Least-Squares Mean Change from Baseline (SBP) (0.5 mg (N = 12), Week 4, mITT, Non-Hispanic Male Patients): −20.5
- Model-Based Least-Squares Mean Change from Baseline (SBP) (0.5 mg (N = 12), Week 6, mITT, Non-Hispanic Male Patients): −16.3
- Model-Based Least-Squares Mean Change from Baseline (SBP) (0.5 mg (N = 12), Week 8, mITT, Non-Hispanic Male Patients): −17.2
- Comp w/ Placebo at Week 6, Diff (95% CI) [3]: −6.4 (−17.23, 4.48)
- Comp w/ Placebo at Week 8, Diff (95% CI) [3]: −2.2 (−12.46, 8.04)
- Model-Based Least-Squares Mean Change from Baseline (SBP) (0.5 mg (N = 15), Week 2, mITT, Hispanic Male Patients): −8.3
- Model-Based Least-Squares Mean Change from Baseline (SBP) (0.5 mg (N = 15), Week 4, mITT, Hispanic Male Patients): −12.6
- Model-Based Least-Squares Mean Change from Baseline (SBP) (0.5 mg (N = 15), Week 6, mITT, Hispanic Male Patients): −16.0
- Model-Based Least-Squares Mean Change from Baseline (SBP) (0.5 mg (N = 15), Week 8, mITT, Hispanic Male Patients): −18.6
- Comp w/ Placebo at Week 6, Diff (95% CI) [4]: −4.7 (−12.73, 3.30)
- Comp w/ Placebo at Week 8, Diff (95% CI) [4]: 0.1 (−6.20, 6.41)
- SBP at Week 8, Mean (0.5 mg QD, mITT): 129.1 mmHg
- SBP LS mean change from baseline (SE), MMRM (0.5 mg, Week 8): −17 (1.63) mm Hg
- SBP LS mean difference (SE) vs placebo (0.5 mg, Week 8): −0.5 (2.21) mmHg
- LS Mean Change from Baseline (SE) in SBP (0.5 mg, Wk 2): −10.3 (1.61) mm Hg
- LS Mean Change from Baseline (SE) in SBP (0.5 mg, Wk 4): −14.2 (1.61) mm Hg
- LS Mean Change from Baseline (SE) in SBP (0.5 mg, Wk 6): −13.5 (1.88) mm Hg
- SBP Change from Baseline to Week 8, Mean (1 mg): −16.6 mmHg
- SBP Change from Baseline to Week 8, Median (1 mg): −16.0 mmHg
- SBP at Week 8, Median (1 mg): 128.0 mmHg
- Model-Based Least-Squares Mean Change from Baseline (SBP) (1 mg (N = 11), Week 2, mITT, Female Non-Hispanic Female Patients): −11.8
- Model-Based Least-Squares Mean Change from Baseline (SBP) (1 mg (N = 11), Week 4, mITT, Female Non-Hispanic Female Patients): −13.5
- Model-Based Least-Squares Mean Change from Baseline (SBP) (1 mg (N = 11), Week 6, mITT, Female Non-Hispanic Female Patients): −20.3
- Model-Based Least-Squares Mean Change from Baseline (SBP) (1 mg (N = 11), Week 8, mITT, Female Non-Hispanic Female Patients): −23.8
- Comp w/ Placebo at Week 6, Diff (95% CI) [5]: −10.0 (−22.06, 2.15)
- Comp w/ Placebo at Week 8, Diff (95% CI) [5]: −10.8 (−20.05, −1.63)
- Model-Based Least-Square Mean Change from Baseline (SBP) (1 mg (N = 13), Week 2, mITT Population for Compliance for Black Patients): −8.9
- Model-Based Least-Square Mean Change from Baseline (SBP) (1 mg (N = 13), Week 4, mITT Population for Compliance for Black Patients): −11.8
- Model-Based Least-Square Mean Change from Baseline (SBP) (1 mg (N = 13), Week 6, mITT Population for Compliance for Black Patients): −13.5
- Model-Based Least-Square Mean Change from Baseline (SBP) (1 mg (N = 13), Week 8, mITT Population for Compliance for Black Patients): −17.4
- Comp w/ Placebo at Week 6, Diff (95% CI) [6]: −3.1 (−14.59, 8.31)
- Comp w/ Placebo at Week 8, Diff (95% CI) [6]: −3.2 (−12.88, 6.52)
- Model-Based Least-Squares Mean Change from Baseline (SBP) (1 mg (N = 14), Week 2, mITT, Female Hispanic/Latino Patients): −7.8
- Model-Based Least-Squares Mean Change from Baseline (SBP) (1 mg (N = 14), Week 2, mITT, Hispanic Male Patients): −7.0
- Model-Based Least-Squares Mean Change from Baseline (SBP) (1 mg (N = 14), Week 4, mITT, Female Hispanic/Latino Patients): −10.3
- Model-Based Least-Squares Mean Change from Baseline (SBP) (1 mg (N = 14), Week 4, mITT, Hispanic Male Patients): −6.4
- Model-Based Least-Squares Mean Change from Baseline (SBP) (1 mg (N = 14), Week 6, mITT, Female Hispanic/Latino Patients): −12.6
- Model-Based Least-Squares Mean Change from Baseline (SBP) (1 mg (N = 14), Week 6, mITT, Hispanic Male Patients): −9.2
- Model-Based Least-Squares Mean Change from Baseline (SBP) (1 mg (N = 14), Week 8, mITT, Female Hispanic/Latino Patients): −12.7
- Model-Based Least-Squares Mean Change from Baseline (SBP) (1 mg (N = 14), Week 8, mITT, Hispanic Male Patients): −15.8
- Comp w/ Placebo at Week 6, Diff (95% CI) [7]: −6.2 (−19.55, 7.07)
- Comp w/ Placebo at Week 8, Diff (95% CI) [7]: 6.4 (−5.38, 18.10)
- Comp w/ Placebo at Week 6, Diff (95% CI) [8]: 2.1 (−6.16, 10.29)
- Comp w/ Placebo at Week 8, Diff (95% CI) [8]: 2.9 (−3.41, 9.25)
- Model-Based Least-Squares Mean Change from Baseline (SBP) (1 mg (N = 22), Week 2, mITT, Non-Hispanic Male Patients): −6.8
- Model-Based Least-Squares Mean Change from Baseline (SBP) (1 mg (N = 22), Week 4, mITT, Non-Hispanic Male Patients): −10.3
- Model-Based Least-Squares Mean Change from Baseline (SBP) (1 mg (N = 22), Week 6, mITT, Non-Hispanic Male Patients): −14.2
- Model-Based Least-Squares Mean Change from Baseline (SBP) (1 mg (N = 22), Week 8, mITT, Non-Hispanic Male Patients): −14.7
- Comp w/ Placebo at Week 6, Diff (95% CI) [9]: −4.3 (−13.56, 5.00)
- Comp w/ Placebo at Week 8, Diff (95% CI) [9]: 0.2 (−8.82, 9.26)
- SBP at Week 8, Mean (1 mg QD, mITT): 130.8 mmHg
- SBP LS mean change from baseline (SE), MMRM (1 mg, Week 8): −16 (1.62) mm Hg
- SBP LS mean difference (SE) vs placebo (1 mg, Week 8): 0.6 (2.20) mmHg
- LS Mean Change from Baseline (SE) in SBP (1 mg, Wk 2): −7.7 (1.6) mm Hg
- LS Mean Change from Baseline (SE) in SBP (1 mg, Wk 4): −9.7 (1.59) mm Hg
